Reference: patent EP4745153A1, “GLP-1, GIP AND GCG RECEPTOR […] USE THEREOF” (Jiangsu Hengrui Pharmaceuticals Co., Ltd., priority 2023, dated 2025)
Also: 5% FBS, 0.1% Casein.

The molecules below were run against T1, human GIPR (Homo sapiens, UniProt P48546) (assay: cAMP HTRF agonist activity assay in CHO-K1 cells expressing GIPR). Conditions: read-out: Activity against human GIPR (EC50 nM).
T1 construct: expressed in transfected cells; host or cells: CHO-K1 clonal cell line
T1 sequence (P48546 22-466): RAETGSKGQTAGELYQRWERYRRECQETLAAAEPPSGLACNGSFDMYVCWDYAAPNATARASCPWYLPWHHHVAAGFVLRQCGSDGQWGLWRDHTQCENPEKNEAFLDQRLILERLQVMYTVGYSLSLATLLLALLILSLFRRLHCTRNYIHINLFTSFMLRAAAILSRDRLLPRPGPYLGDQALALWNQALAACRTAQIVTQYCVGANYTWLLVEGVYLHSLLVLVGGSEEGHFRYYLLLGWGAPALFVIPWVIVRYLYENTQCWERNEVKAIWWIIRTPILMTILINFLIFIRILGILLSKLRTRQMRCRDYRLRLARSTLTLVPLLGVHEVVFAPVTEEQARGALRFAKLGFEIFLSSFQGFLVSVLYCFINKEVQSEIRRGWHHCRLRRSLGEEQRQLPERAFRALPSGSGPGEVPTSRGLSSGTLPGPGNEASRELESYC
Format: cell-based
Description: Functional activity was determined in CHO-K1 clonal cell lines expressing GIPR, GLP-1R, and GCGR. […] Each recipient cell (5000 cells/well) was added to an SV 96-well plate (Cisbio, 66PL96025) and incubated with the prepared polypeptide at 37°Cfor 30 min. The resulting increase in intracellular cAMP was quantitatively measured using the cAMP-GS dynamic HTRF assay kit (Cisbio, 62AM4PEJ). Briefly, the intracellular cAMP levels were determined by adding cAMP-d2 conjugate in cell lysis buffer, followed by the antibody anti-cAMP-Eu cryptate (also in cell lysis buffer).
Using the maximum response percentage vs. the added polypeptide concentration, the relative EC50 values were derived through nonlinear regression analysis and fitted to a four-parameter logarithmic equation. For specific data, refer to Tables 7-1 to 7-8 below. […]
In the case of `CC[C@H](C)[C@H](NC(=O)[C@H](CO)NC(=O)[C@H](Cc1ccc(O)cc1)NC(=O)[C@H](CC(=O)O)NC(=O)[C@H](CO)NC(=O)[C@@H](NC(=O)[C@H](Cc1ccccc1)NC(=O)[C@@H](NC(=O)CNC(=O)[C@H](Cc1c[nH]cn1)NC(=O)C(C)(C)NC(=O)[C@@H](N)Cc1c[nH]cn1)[C@@H](C)O)[C@@H](C)O)C(=O)N[C@@H](CC(C)C)C(=O)N[C@@H](CC(C)C)C(=O)N[C@@H](CCC(=O)O)C(=O)N[C@@H](CCCCNC(=O)COCCOCCNC(=O)COCCOCCNC(=O)CC[C@H](NC(=O)CCCCCCCCCCCCCCCCCCC(=O)O)C(=O)O)C(=O)N[C@@H](CCC(N)=O)C(=O)N[C@@H](C)C(=O)N[C@@H](C)C(=O)NC1(C(=O)N[C@@H](CCC(=O)O)C(=O)N[C@@H](Cc2ccccc2)C(=O)N[C@H](C(=O)N[C@@H](CCC(=O)O)C(=O)N[C@@H](Cc2c[nH]c3ccccc23)C(=O)N[C@@H](CC(C)C)C(=O)N[C@@H](CC(C)C)C(=O)N[C@@H](C)C(=O)N[C@H](CCC(=O)O)C(=O)NCC(=O)N2CCC[C@H]2C(=O)N[C@@H](CO)C(=O)N[C@@H](CO)C(=O)NCC(=O)N[C@@H](C)C(=O)N2CCC[C@H]2C(=O)N2CCC[C@H]2C(=O)N2CCC[C@H]2C(=O)N[C@@H](CO)C(N)=O)C(C)C)CCC1` [Compound 0150], the EC50 is reported as 0.002 nM.
`CC[C@H](C)[C@H](NC(=O)[C@H](CO)NC(=O)[C@H](Cc1ccc(O)cc1)NC(=O)[C@H](CC(=O)O)NC(=O)[C@H](CO)NC(=O)[C@@H](NC(=O)[C@H](Cc1ccccc1)NC(=O)[C@@H](NC(=O)CNC(=O)[C@H](Cc1c[nH]cn1)NC(=O)C(C)(C)NC(=O)[C@@H](N)Cc1c[nH]cn1)[C@@H](C)O)[C@@H](C)O)C(=O)N[C@@H](CC(C)C)C(=O)N[C@@H](CC(C)C)C(=O)N[C@@H](CCC(=O)O)C(=O)N[C@@H](CCCCNC(=O)COCCOCCNC(=O)COCCOCCNC(=O)CC[C@H](NC(=O)CCCCCCCCCCCCCCCCCCC(=O)O)C(=O)O)C(=O)N[C@@H](CCC(N)=O)C(=O)N[C@@H](C)C(=O)N[C@@H](C)C(=O)N[C@@H](CCC(N)=O)C(=O)N[C@@H](CCC(=O)O)C(=O)N[C@@H](Cc1ccccc1)C(=O)N[C@H](C(=O)N[C@@H](CCC(=O)O)C(=O)N[C@@H](Cc1c[nH]c2ccccc12)C(=O)N[C@@H](CC(C)C)C(=O)N[C@@H](CC(C)C)C(=O)N[C@@H](C)C(=O)N[C@H](CCC(=O)O)C(=O)NCC(=O)N1CCC[C@H]1C(=O)N[C@@H](CO)C(=O)N[C@@H](CO)C(=O)NCC(=O)N[C@@H](C)C(=O)N1CCC[C@H]1C(=O)N1CCC[C@H]1C(=O)N1CCC[C@H]1C(=O)N[C@@H](CO)C(N)=O)C(C)C` [Compound 0153] was tested, and the EC50 was 0.01 nM.
Work on `CC[C@H](C)[C@H](NC(=O)[C@H](CO)NC(=O)[C@H](Cc1ccc(O)cc1)NC(=O)[C@H](CC(=O)O)NC(=O)[C@H](CO)NC(=O)[C@@H](NC(=O)[C@H](Cc1ccccc1)NC(=O)[C@@H](NC(=O)CNC(=O)[C@H](Cc1c[nH]cn1)NC(=O)C(C)(C)NC(=O)[C@@H](N)Cc1c[nH]cn1)[C@@H](C)O)[C@@H](C)O)C(=O)N[C@@H](CC(C)C)C(=O)N[C@@H](CC(C)C)C(=O)N[C@@H](CCC(=O)O)C(=O)N[C@@H](CCCCNC(=O)COCCOCCNC(=O)COCCOCCNC(=O)CC[C@H](NC(=O)CCCCCCCCCCCCCCCCCCC(=O)O)C(=O)O)C(=O)N[C@@H](CCC(N)=O)C(=O)N[C@@H](C)C(=O)N[C@@H](C)C(=O)NC1(C(=O)N[C@@H](CCC(=O)O)C(=O)N[C@@H](Cc2ccccc2)C(=O)N[C@H](C(=O)N[C@@H](CCC(=O)O)C(=O)N[C@@H](Cc2c[nH]c3ccccc23)C(=O)N[C@@H](CC(C)C)C(=O)N[C@@H](CC(C)C)C(=O)N[C@@H](C)C(=O)N[C@H](CCC(=O)O)C(=O)NCC(=O)N2CCC[C@H]2C(=O)N[C@@H](CO)C(=O)N[C@@H](CO)C(=O)NCC(=O)N[C@@H](C)C(=O)N2CCC[C@H]2C(=O)N2CCC[C@H]2C(=O)N2CCC[C@H]2C(=O)N[C@@H](CO)C(N)=O)C(C)C)CC1` [Compound 0149] yielded an EC50 of 0.004 nM.
In the case of `CC[C@H](C)[C@H](NC(=O)[C@H](CO)NC(=O)[C@H](Cc1ccc(O)cc1)NC(=O)[C@H](CC(=O)O)NC(=O)[C@H](CO)NC(=O)[C@@H](NC(=O)[C@H](Cc1ccccc1)NC(=O)[C@@H](NC(=O)CNC(=O)[C@H](CCC(N)=O)NC(=O)C(C)(C)NC(=O)[C@@H](N)Cc1c[nH]cn1)[C@@H](C)O)[C@@H](C)O)C(=O)N[C@@H](CC(C)C)C(=O)N[C@@H](CC(C)C)C(=O)N[C@@H](CCC(=O)O)C(=O)N[C@@H](CCCCNC(=O)COCCOCCNC(=O)COCCOCCNC(=O)CC[C@H](NC(=O)CCCCCCCCCCCCCCCCCCC(=O)O)C(=O)O)C(=O)N[C@@H](CCCCN)C(=O)N[C@@H](C)C(=O)N[C@@H](C)C(=O)NC(C)(C)C(=O)N[C@@H](CCC(=O)O)C(=O)N[C@@H](Cc1ccccc1)C(=O)N[C@H](C(=O)N[C@@H](CCC(=O)O)C(=O)N[C@@H](Cc1c[nH]c2ccccc12)C(=O)N[C@@H](CC(C)C)C(=O)N[C@@H](CC(C)C)C(=O)N[C@@H](C)C(=O)NCC(=O)NCC(=O)N1CCC[C@H]1C(=O)N[C@@H](CO)C(=O)N[C@@H](CO)C(=O)NCC(=O)N[C@@H](C)C(=O)N1CCC[C@H]1C(=O)N1CCC[C@H]1C(=O)N1CCC[C@H]1C(=O)N[C@@H](CO)C(N)=O)C(C)C` [Compound 0156], the EC50 is reported as 0.019 nM.
